Experimental data from patent US12247011B2, “Selective inhibitors of NLRP3 inflammasome” (NodThera Limited, priority 2017, dated 2025).

System: IL-1β release upon NLRP3 activation in peripheral blood mononuclear cells (PBMC)
Assay: PBMC IC50 Determination Assay
Type: cell-based
Details: Homo sapiens; LPS-primed PBMC, 30 min compound, stimulated with ATP (5 mM) or nigericin (10 μM) for 1 h; IL-1β ELISA; read-out: PBMC IC50
Experimental: PBMC IC50 Determination Assay
The compounds of the present disclosure were tested for their inhibitory activity against IL-1β release upon NLRP3 activation in peripheral blood mononuclear cells (PBMC).
Isolated cells were seeded into the wells of a 96-well plate and incubated for 3 h with lipopolysaccharide (LPS). Following medium exchange, the compounds of the present disclosure were added (a single compound per well) and the cells were incubated for 30 min. Next, the cells were stimulated either with ATP (5 mM) or nigericin (10 μM) for 1 h and the cell culture media from the wells were collected for further analysis.
The release of IL-1β into the media was determined by a quantitative detection of IL-1β in the media using an IL-1β enzyme-linked immunosorbent assay (ELISA) Ready-SET-Go!, eBioscience cat. […] Subsequently, plates were blocked with blocking buffer for 1 h at room temperature (rt) and after washing with a buffer (PBS with 0.05% Tween-20) incubated with protein standard and culture media. […] Plates were washed and incubated with HRP-streptavidin for 30 min at rt and washed again. The signal was developed after addition of 3,3,5,5-tetramethylbenzidine-peroxidase (TMB) until colour appeared and the reaction was stopped by 2 M H2SO4. A microplate spectrophotometer (BioTek) was used to detect signals with 450 nm. The detection range of IL-1β ELISA was 2-150 ng/ml.

Row | SMILES | IC50
1 | CCOC(=O)C(Cc1ccccc1)OC(=O)Nc1c2c(cc3c1CCC3)CCC2 (centres unmarked) [Compound 17, Ethyl 2-(((1,2,3,5,6,7-hexahydro-s-indacen-4-yl)carbamoyl)oxy)-3-phenylpropanoate] | 100 to 1000 nM
2 | CCOC(=O)C(Cn1cccn1)OC(=O)Nc1c(F)ccc(F)c1F (centres unmarked) [Compound 63, Ethyl 3-(1H-pyrazol-1-yl)-2-{[(2,3,6-trifluorophenyl)carbamoyl]oxy}propanoate] | 100 to 1000 nM
3 | CC(C)OC(=O)C(Cc1ccnnc1)OC(=O)Nc1c2c(cc3c1CCC3)CCC2 (centres unmarked) [Compound 128, Propan-2-yl 2-{[(1,2,3,5,6,7-hexahydro-s-indacen-4-yl)carbamoyl]oxy}-3-(pyridazin-4-yl)propanoate] | 100 to 1000 nM
4 | CCOC(=O)C(Cn1cccn1)OC(=O)Nc1c(Cl)cccc1C#N (centres unmarked) [Compound 59, Ethyl 2-{[(2-chloro-6-cyanophenyl)carbamoyl]oxy}-3-(1H-pyrazol-1-yl)propanoate] | > 10000 nM
5 | N#Cc1cnn(C[C@@H](OC(=O)Nc2c3c(cc4c2CCC4)CCC3)C(=O)OC2CCCC2)c1 [Compound 113, Cyclopentyl (2R)-3-(4-cyano-1H-pyrazol-1-yl)-2-{[(1,2,3,5,6,7-hexahydro-s-indacen-4-yl)carbamoyl]oxy}propanoate] | < 10 nM
6 | CC(C)OC(=O)C(Cc1ncccn1)OC(=O)Nc1c(Cl)cccc1Cl (centres unmarked) [Compound 125, Propan-2-yl 2-{[(2,6-dichlorophenyl)carbamoyl]oxy}-3-(pyrimidin-2-yl)propanoate] | 1000 to 10000 nM
7 | CCOC(=O)COC(=O)Nc1c(C)cccc1CC [Compound 16, Ethyl 2-(((2-ethyl-6-methylphenyl)carbamoyl)oxy)acetate] | 100 to 1000 nM
8 | CCOC(=O)[C@@H](Cc1cccc(C#N)c1)OC(=O)Nc1c2c(cc3c1CCC3)CCC2 [Compound 41, Ethyl (2R)-3-(3-cyanophenyl)-2-{[(1,2,3,5,6,7-hexahydro-s-indacen-4-yl)carbamoyl]oxy}propanoate] | 10 to 100 nM
9 | CCOC(=O)[C@@H](COC)OC(=O)Nc1c2c(cc3c1CCC3)CCC2 [Compound 68, Ethyl (2R)-2-{[(1,2,3,5,6,7-hexahydro-indacen-4-yl)carbamoyl]oxy}-3-methoxypropanoate] | 1000 to 10000 nM
10 | O=C(COC(=O)Nc1c2c(cc3c1CCC3)CCC2)OC1CCCC1 [Compound 32, Cyclopentyl 2-{[(1,2,3,5,6,7-hexahydro-s-indacen-4-yl)carbamoyl]oxy}acetate] | 100 to 1000 nM
11 | CCOC(=O)C(Cn1cccn1)OC(=O)Nc1c(C)ccc2ccccc12 (centres unmarked) [Compound 86, Ethyl 2-{[(2-methylnaphthalen-1-yl)carbamoyl]oxy}-3-(1H-pyrazol-1-yl)propanoate] | 10 to 100 nM
12 | CCOC(=O)[C@@H](Cn1ccnc1)OC(=O)Nc1c2c(cc3c1CCC3)CCC2 [Compound 67, Ethyl (2R)-2-{[(1,2,3,5,6,7-hexahydro-s-indacen-4-yl)carbamoyl]oxy}-3-(1H-imidazol-1-yl)propanoate] | 100 to 1000 nM
13 | CCOC(=O)C(Cn1ccnc1)OC(=O)Nc1c2c(cc3c1CCC3)CCC2 (centres unmarked) [Compound 33, Ethyl 2-{[(1,2,3,5,6,7-hexahydro-s-indacen-4-yl)carbamoyl]oxy}-3-(1H-imidazol-1-yl)propanoate] | 100 to 1000 nM
14 | CCOC(=O)C(Cn1cccn1)OC(=O)Nc1c(C)cc(C(F)(F)F)cc1C (centres unmarked) [Compound 91, Ethyl 2-({[2,6-dimethyl-4-(trifluoromethyl)phenyl]carbamoyl}oxy)-3-(1H-pyrazol-1-yl)propanoate] | 1000 to 10000 nM
15 | CCOC(=O)C(Cn1cccn1)OC(=O)Nc1c(F)cccc1CC (centres unmarked) [Compound 66, Ethyl 2-{[(2-ethyl-6-fluorophenyl)carbamoyl]oxy}-3-(1H-pyrazol-1-yl)propanoate] | 100 to 1000 nM
16 | CCOC(=O)[C@@H](COC(C)C)OC(=O)Nc1c2c(cc3c1CCC3)CCC2 [Compound 104, Ethyl (2R)-2-{[(1,2,3,5,6,7-hexahydro-s-indacen-4-yl)carbamoyl]oxy}-3-(propan-2-yloxy)propanoate] | 1000 to 10000 nM
17 | CCOC(=O)COC(=O)Nc1c(C)cc(C)cc1C [Compound 14, Ethyl 2-((mesitylcarbamoyl)oxy)acetate] | 1000 to 10000 nM
18 | O=C(COC(=O)Nc1c2c(cc3c1CCC3)CCC2)OCC1CC1 [Compound 22, Cyclopropylmethyl 2-{[(1,2,3,5,6,7-hexahydro-s-indacen-4-yl)carbamoyl]oxy}acetate] | 100 to 1000 nM

Row | SMILES | IC50
19 | CCOC(=O)[C@@H](Cn1cnc(C)n1)OC(=O)Nc1c2c(cc3c1CCC3)CCC2 [Compound 105, Ethyl (2R)-2-{[(1,2,3,5,6,7-hexahydro-s-indacen-4-yl)carbamoyl]oxy}-3-(3-methyl-1H-1,2,4-triazol-1-yl)propanoate] | 10 to 100 nM
20 | Cc1cncc(CC(OC(=O)Nc2c3c(cc4c2CCC4)CCC3)C(=O)OC(C)C)n1 (centres unmarked) [Compound 117, Propan-2-yl 2-{[(1,2,3,5,6,7-hexahydro-s-indacen-4-yl)carbamoyl]oxy}-3-(6-methylpyrazin-2-yl)propanoate] | < 10 nM
21 | CC(C)COC(=O)COC(=O)Nc1c2c(cc3c1CCC3)CCC2 [Compound 24, 2-methylpropyl 2-{[(1,2,3,5,6,7-hexahydro-s-indacen-4-yl)carbamoyl]oxy}acetate] | 100 to 1000 nM
22 | CCOC(=O)[C@@H](COC1CCOCC1)OC(=O)Nc1c2c(cc3c1CCC3)CCC2 [Compound 102, Ethyl (2R)-2-{[(1,2,3,5,6,7-hexahydro-s-indacen-4-yl)carbamoyl]oxy}-3-(oxan-4-yloxy)propanoate] | 100 to 1000 nM
23 | O=C(Nc1c2c(cc3c1CCC3)CCC2)O[C@H](Cc1cnccn1)C(=O)OC1CCCC1 [Compound 111, Cyclopentyl (2R)-2-{[(1,2,3,5,6,7-hexahydro-s-indacen-4-yl)carbamoyl]oxy}-3-(pyrazin-2-yl)propanoate] | < 10 nM
24 | O=C(Nc1c2c(cc3c1CCC3)CCC2)O[C@H](Cn1cncn1)C(=O)OC1CCCC1 [Compound 116, Cyclopentyl (2R)-2-{[(1,2,3,5,6,7-hexahydro-s-indacen-4-yl)carbamoyl]oxy}-3-(1H-1,2,4-triazol-1-yl)propanoate] | < 10 nM
25 | CCOC(=O)COC(=O)Nc1ccccc1C(C)(C)C [Compound 13, Ethyl 2-{[(2-tert-butylphenyl)carbamoyl]oxy}acetate] | 1000 to 10000 nM
26 | CCOC(=O)COC(=O)Nc1c(CC)cc(C)cc1CC [Compound 28, Ethyl 2-{[(2,6-diethyl-4-methylphenyl)carbamoyl]oxy}acetate] | 1000 to 10000 nM
27 | CCOC(=O)C(Cn1cccn1)OC(=O)Nc1c(C)cccc1CC (centres unmarked) [Compound 46, Ethyl 2-{[(2-ethyl-6-methylphenyl)carbamoyl]oxy}-3-(1H-pyrazol-1-yl)propanoate] | 100 to 1000 nM
28 | CCOC(=O)C(Cn1cccn1)OC(=O)Nc1c(F)ccc(Cl)c1F (centres unmarked) [Compound 75, Ethyl 2-{[(3-chloro-2,6-difluorophenyl)carbamoyl]oxy}-3-(1H-pyrazol-1-yl)propanoate] | 100 to 1000 nM
29 | CCOC(=O)C(Cn1cccn1)OC(=O)Nc1c(Cl)cccc1Cl (centres unmarked) [Compound 52, Ethyl 2-{[(2,6-dichlorophenyl)carbamoyl]oxy}-3-(1H-pyrazol-1-yl)propanoate] | 1000 to 10000 nM
30 | CC(C)OC(=O)C(Cc1ncccn1)OC(=O)NC1(C)CCCCC1 (centres unmarked) [Compound 122, Propan-2-yl 2-{[(1-methylcyclohexyl)carbamoyl]oxy}-3-(pyrimidin-2-yl)propanoate] | > 10000 nM
31 | CCCOC(=O)COC(=O)Nc1c2c(cc3c1CCC3)CCC2 [Compound 21] | 100 to 1000 nM
32 | CCOC(=O)[C@@H](Cc1ccc(C#N)cc1)OC(=O)Nc1c2c(cc3c1CCC3)CCC2 [Compound 25, Ethyl 3-(4-cyanophenyl)-2-{[(1,2,3,5,6,7-hexahydro-s-indacen-4-yl)carbamoyl]oxy}propanoate] | 100 to 1000 nM
33 | CCOC(=O)C(Cn1cccn1)OC(=O)NC1CCCCC1C (centres unmarked) [Compound 87, Ethyl 2-{[(2-methylcyclohexyl)carbamoyl]oxy}-3-(1H-pyrazol-1-yl)propanoate] | 1000 to 10000 nM
34 | CCOC(=O)COC(=O)Nc1c(C)cccc1Cl [Compound 10] | 1000 to 10000 nM
35 | CC(C)OC(=O)C(Cc1ncccn1)OC(=O)NC12CCC(CC1)CC2 (centres unmarked) [Compound 127, Propan-2-yl 2-[({bicyclo[2.2.2]octan-1-yl}carbamoyl)oxy]-3-(pyrimidin-2-yl)propanoate] | 1000 to 10000 nM
